# Measured values published in patent publication US3976770A, “Sar'-(OMe)Thr^8 Angiotensin II as an angiotensin II antagonist” (priority 1975, dated 1976).
# What was measured:
# [1] = system: blood pressure; assay: in vivo pressor response on infusion into anesthetized, vagotomized rats; conditions: scale set artificially at 100 for angiotensin II
# Method: In the in vivo assays, rats were anesthetized with sodium amytal and further treated with 0.6 mg atropine and pentolinium tartrate. They were vagotomized and direct recording of the blood pressure was measured through the carotid artery, while the femoral artery was used for infusing the desired dose over a period of 30 minutes in a physiological saline solution.
# The dose-response curves of angiotensin II at 0.9 to 54 ng/kg/min. were compared by linear regression analysis with those of the antagonist at doses of 1, 10, 100 and 1000 ng/kg/min. Infusion of the above antagonist into rats thus prepared led to the initial transient pressor response of 0.48 on a scale set artificially at 100 for angiotensin II using the same system.
# [2] = system: pressor response of angiotensin II; assay: blocking of the pressor response of angiotensin II in ganglion blocked rats; assay type: in vivo
# Method: For determining its antagonistic properties the compound was infused intravenously in ganglion blocked rats at a dose level of 125, 250, 500, 1250 ng/kg/min. The blocking effect of the compound was calculated from the dose-response curve of angiotensin II before and during the infusion of the analog. General procedure adopted for this assay has been described by Bumpus et al., Circ. Res. 32-33 (Supplement I), I-150 (1973). […] The dose-ratio obtained was 62.50 ± 14.93 at a dose-level of 250 ng/kg/min.
# [3] = system: acute unilateral renal hypertensive rats; assay: blood pressure in acute unilateral renal hypertensive rats; assay type: in vivo; conditions: intravenous infusion
# [4] = water solubility and storage of solution; assay type: physicochemical
# Method: Since the above compound is particularly suitable for injection or infusion, it is particularly valuable that the compound is watersoluble. A suitable dosage unit can be prepared by simply dissolving the above compound in water or physiological saline at a concentration of between 50 and 6000 ng/ml. […] A commonly employed buffer for an injectable solution is Tris(hydroxymethyl) aminomethane but simple salts such as sodium phosphate or acetate can be used. Preferably, the vehicle or medium in which the compound of Formula I is dissolved for an injectable or infusable solution is buffered to a pH of 7 to 7.5.
# [5] = duration of action after i.m. injection of an oil solution; assay type: in vivo; conditions: single i.m. injection, dissolved in oil
# Method: The duration of action of the compound can be prolonged by injecting an oil solution intramuscularly. Oils suitable for this purpose are cod liver oil, sesame oil, refined coconut oil, etc. Antagonistic effects are thus observed for 24 hours or longer after a single i.m. injection of the drug dissolved in such an oil.
structure (smiles),measurement,setting,value
"CC[C@H](C)[C@H](NC(=O)[C@H](Cc1ccc(O)cc1)NC(=O)[C@@H](NC(=O)[C@H](CCCNC(=N)N)NC(=O)CNC)C(C)C)C(=O)N[C@@H](Cc1cnc[nH]1)C(=O)N1CCC[C@H]1C(=O)N[C@H](C(=O)O)[C@@H](C)OC [Formula I, Sar'-(OMe)Thr^8 Angiotensin II]",initial transient pressor response,[1],0.48
same,dose-ratio,"[2]; dose-level of 250 ng/kg/min, intravenous infusion, ganglion blocked rats",62.50 ± 14.93
same,pressor effect of angiotensin II,[2]; intravenous infusion into rats in a very small amount,inhibited
same,dose level at which the pressor response of angiotensin II was blocked,"[2]; intravenous infusion, ganglion blocked rats",≥ 125 ng/kg/min
same,blood pressure,[3],capable of reducing blood pressure
same,water solubility,[4],watersoluble
same,storage of solution without deterioration,"[4]; solution in water or physiological saline, 50-6000 ng/ml, proper conditions",several weeks without deterioration
same,duration of antagonistic effects,[5],≥ 24 h
